The experiment deals with T1, TNKS1 (Homo sapiens, UniProt O95271).
T1 sequence (O95271 1-1327): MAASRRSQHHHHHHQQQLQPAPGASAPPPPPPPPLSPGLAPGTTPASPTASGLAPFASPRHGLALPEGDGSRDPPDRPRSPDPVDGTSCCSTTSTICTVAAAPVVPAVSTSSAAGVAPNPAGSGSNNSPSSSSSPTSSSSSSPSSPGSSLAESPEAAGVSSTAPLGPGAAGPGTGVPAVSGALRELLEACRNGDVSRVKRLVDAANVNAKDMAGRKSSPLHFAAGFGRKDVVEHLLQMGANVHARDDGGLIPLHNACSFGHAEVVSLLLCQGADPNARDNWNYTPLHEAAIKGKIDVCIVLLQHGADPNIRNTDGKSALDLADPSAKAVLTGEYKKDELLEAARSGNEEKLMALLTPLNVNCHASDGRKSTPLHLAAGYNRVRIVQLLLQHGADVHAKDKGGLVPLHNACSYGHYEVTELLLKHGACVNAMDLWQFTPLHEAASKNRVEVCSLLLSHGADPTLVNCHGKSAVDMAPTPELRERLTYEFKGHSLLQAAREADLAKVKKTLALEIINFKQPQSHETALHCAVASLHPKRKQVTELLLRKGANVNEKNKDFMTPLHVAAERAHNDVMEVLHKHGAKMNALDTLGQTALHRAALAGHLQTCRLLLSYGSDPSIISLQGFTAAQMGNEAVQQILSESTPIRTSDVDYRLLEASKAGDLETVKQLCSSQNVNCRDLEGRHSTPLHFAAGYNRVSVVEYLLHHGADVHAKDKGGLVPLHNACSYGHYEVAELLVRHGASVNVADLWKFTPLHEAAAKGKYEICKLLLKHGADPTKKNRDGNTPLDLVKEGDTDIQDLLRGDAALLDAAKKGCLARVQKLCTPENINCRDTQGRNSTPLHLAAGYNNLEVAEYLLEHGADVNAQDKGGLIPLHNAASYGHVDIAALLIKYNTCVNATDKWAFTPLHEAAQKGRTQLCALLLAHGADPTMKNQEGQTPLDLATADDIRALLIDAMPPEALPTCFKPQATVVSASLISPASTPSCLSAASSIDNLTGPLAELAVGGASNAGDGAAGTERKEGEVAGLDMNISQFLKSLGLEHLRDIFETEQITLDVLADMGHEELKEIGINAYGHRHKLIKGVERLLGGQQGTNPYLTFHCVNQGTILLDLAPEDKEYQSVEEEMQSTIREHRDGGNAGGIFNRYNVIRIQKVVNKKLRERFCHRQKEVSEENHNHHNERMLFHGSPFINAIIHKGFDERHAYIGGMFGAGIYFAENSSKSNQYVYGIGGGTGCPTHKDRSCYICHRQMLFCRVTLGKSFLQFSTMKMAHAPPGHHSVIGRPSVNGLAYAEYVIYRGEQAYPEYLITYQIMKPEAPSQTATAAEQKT
As to the kind of experiment: Modified TNKS1 Assay 2 (auto-parsylation, [3H]-NAD+ SPA). Format: biochemical. To be noted: 6 nM TNKS1, 96 well. As for the experimental part: The potency of selected compounds according to the invention was assessed applying an modified in vitro inhibition assay. Here, the TNKS1 catalyzed NAD^+-dependent ribosylation of the enzyme itself (auto-parsylation) was detected using [^3H]-NAD^+ as substrate and applying the scintillation proximity assay (SPA) method to detect tritium-labeled, parsylated TNKS1. The intensity of the readout signal is proportional to the incorporated [^3H]-NAD^+. Inhibition of TNKS1 leads to a decreased incorporation of [^3H]-NAD^+ and consequently to a lower readout signal intensity. The concentration of a test compound which inhibits the enzyme activity by 50% (corresponds to half of the normed readout signal intensity) is reported as IC50.
The assay was conducted in a 96 well MTP format with the identical TNKS1 enzyme sample and NAD^+ sample as in the histone ribosylation assay with the following modifications: TNKS1 enzyme sample was diluted with a modified assay buffer (50 mM MES pH 7.0, 1 mM DTT, 0.01% Triton X-100) to a final concentration of 6 nM TNKS1 and 10×NAD^+ solution was diluted with the modified assay buffer (s. above) to a final 0.445×NAD^+ solution doped with 100 Bq/ul [^3H]-NAD^+[Catalog #NET443H050UC, Perkin Elmer, Waltham, Mass., USA]. Substrate solution (10 ul) was incubated with different test compound concentrations (2.5 ul in 10% DMSO in modified assay buffer) or control (2.5 ul 10% DMSO in modified assay buffer only) and enzyme (10 ul) over night at room temperature. Incorporated tritium was measured after addition of 50 ul SPA beads (1 mg/ml) [Catalog #RPNQ0095 20 mg/ml, Perkin Elmer, Waltham, Mass., USA; diluted 1:10 with Dulbecco's phosphate buffered saline, PBS Catalog #D8537, Sigma-Aldrich, Steinheim, Germany] and detection of the photon emission with a beta count plate reader [Wallac MicroBeta®, Perkin Elmer, Waltham, Mass., USA].

This is an account of results in patent US9884063B2, “Amido-substituted azole compounds” (Bayer Pharma Aktiengesellschaft, priority 2014, dated 2018).

One may read the IC50 as the concentration that gives 50% inhibition. A lower IC50 goes with greater potency in that assay. As to `CNC(=O)c1nc[nH]c1C(=O)Nc1ccc(NC(=O)c2ccc(F)cc2Cl)c(C)c1` [Example 5, N^5-{4-[(2-chloro-4-fluorobenzoyl)amino]-3-methylphenyl}-N^4-methyl-1H-imidazole-4,5-dicarboxamide], the midpoint of inhibition, the IC50, lay at 320 nM.

In turn, `CNC(=O)c1nc[nH]c1C(=O)Nc1ccc(NC(=O)c2ccc(C)cc2Cl)cc1` [Example 244, N^5-{4-[(2-chloro-4-methylbenzoyl)amino]phenyl}-N^4-methyl-1H-imidazole-4,5-dicarboxamide] had an IC50 of 40 nM.

As for `CN(C)CCNC(=O)c1[nH]cnc1C(=O)Nc1ccc(NC(=O)c2ccc(F)cc2Br)cc1` [Example 217, N^4-{4-[(2-bromo-4-fluorobenzoyl)amino]phenyl}-N^5-[2-(dimethylamino)ethyl]-1H-imidazole-4,5-dicarboxamide], half-maximal inhibition (IC50) required 10 nM.

Molecule `CN1CCN(CCNC(=O)c2[nH]cnc2C(=O)Nc2ccc(NC(=O)c3ccccc3Cl)cc2)CC1` [Example 160, N^4-{4-[(2-chlorobenzoyl)amino]phenyl}-N^5-[2-(4-methylpiperazin-1-yl)ethyl]-1H-imidazole-4,5-dicarboxamide] returned an IC50 of 80 nM.

In turn, `CCNC(=O)c1nc[nH]c1C(=O)Nc1ccc(NC(=O)c2ccc(OCC)cc2Cl)cc1` [Example 259, N^5-{4-[(2-chloro-4-ethoxybenzoyl)amino]phenyl}-N^4-ethyl-1H-imidazole-4,5-dicarboxamide] registered an IC50 of 300 nM.

As for `CNC(=O)c1nc[nH]c1C(=O)Nc1ccc(NC(=O)c2ccc(OCCN(C)C)cc2Cl)cc1` [Example 25, N^5-[4-({2-chloro-4-[2-(dimethylamino)ethoxy]benzoyl}amino)phenyl]-N^4-methyl-1H-imidazole-4,5-dicarboxamide], half-maximal inhibition (IC50) required 80 nM.

Molecule `O=C(Nc1ccc(NC(=O)c2nc[nH]c2C(=O)NCCN2CCCCC2)cc1)c1ccc(F)cc1Br` [Example 216, N^4-{4-[(2-bromo-4-fluorobenzoyl)amino]phenyl}-N^5-[2-(piperidin-1-yl)ethyl]-1H-imidazole-4,5-dicarboxamide] returned an IC50 of 7 nM.

`CNC(=O)c1nc[nH]c1C(=O)Nc1ccc(NC(=O)c2c(F)cc(F)cc2Cl)cc1` [Example 118, N^5-{4-[(2-chloro-4,6-difluorobenzoyl)amino]phenyl}-N^4-methyl-1H-imidazole-4,5-dicarboxamide]: the IC50 is 80 nM.

As for `O=C(Nc1ccc(NC(=O)c2nc[nH]c2C(=O)NC2CC2)cc1)c1ccc(F)cc1` [Example 131, N^5-cyclopropyl-N^4-{4-[(4-fluorobenzoyl)amino]phenyl}-1H-imidazole-4,5-dicarboxamide], the IC50 is over 10000 nM.

Regarding `O=C(Nc1ccc(NC(=O)c2nc[nH]c2C(=O)NCCN2CCCC2)cc1)c1ccc(F)cc1` [Example 176, N^4-{4-[(4-fluorobenzoyl)amino]phenyl}-N^5-[2-(pyrrolidin-1-yl)ethyl]-1H-imidazole-4,5-dicarboxamide], 50 nM corresponded to half-maximal inhibition (IC50).

As for `O=C(Nc1ccc(NC(=O)c2nc[nH]c2C(=O)NCCF)cc1)c1ccc(F)cc1Cl` [Example 173, N^4-{4-[(2-chloro-4-fluorobenzoyl)amino]phenyl}-N^5-(2-fluoroethyl)-1H-imidazole-4,5-dicarboxamide], 30 nM corresponded to half-maximal inhibition (IC50).

With `CNC(=O)c1nc[nH]c1C(=O)Nc1ccc(NC(=O)c2ccccc2C(F)F)cc1` [Example 241, N^5-(4-{[2-(difluoromethyl)benzoyl]amino}phenyl)-N^4-methyl-1H-imidazole-4,5-dicarboxamide], 2500 nM corresponded to half-maximal inhibition (IC50).

The molecule `CC(C)(CN1CCCCC1)NC(=O)c1[nH]cnc1C(=O)Nc1ccc(NC(=O)c2ccc(F)cc2Cl)cc1` [Example 184, N^4-{4-[(2-chloro-4-fluorobenzoyl)amino]phenyl}-N^5-[2-methyl-1-(piperidin-1-yl)propan-2-yl]-1H-imidazole-4,5-dicarboxamide] displayed an IC50 of 30 nM.

The molecule `O=C(Nc1ccc(NC(=O)c2nc[nH]c2C(=O)NCCCN2CCOCC2)cc1)c1ccc(F)cc1` [Example 206, N^4-{4-[(4-fluorobenzoyl)amino]phenyl}-N^5-[3-(morpholin-4-yl)propyl]-1H-imidazole-4,5-dicarboxamide] registered an IC50 of 4100 nM. Against the preceding molecule, the IC50 is about 140-fold higher.

`CC1CCN(CCNC(=O)c2[nH]cnc2C(=O)Nc2ccc(NC(=O)c3ccc(F)cc3)cc2)CC1` [Example 164, N^4-{4-[(4-fluorobenzoyl)amino]phenyl}-N^5-[2-(4-methylpiperidin-1-yl)ethyl]-1H-imidazole-4,5-dicarboxamide] yielded an IC50 of 40 nM.

Molecule `CC(C)(CN1CCOCC1)NC(=O)c1[nH]cnc1C(=O)Nc1ccc(NC(=O)c2ccc(F)cc2)cc1` [Example 180, N^4-{4-[(4-fluorobenzoyl)amino]phenyl}-N^5-[2-methyl-1-(morpholin-4-yl)propan-2-yl]-1H-imidazole-4,5-dicarboxamide] displayed an IC50 of 4000 nM. Compared with the last molecule, the IC50 is about 100-fold higher.

On to `CC(C)(CN1CCOCC1)NC(=O)c1[nH]cnc1C(=O)Nc1ccc(NC(=O)c2ccc(F)cc2Cl)cc1` [Example 207, N^4-{4-[(2-chloro-4-fluorobenzoyl)amino]phenyl}-N^5-[2-methyl-1-(morpholin-4-yl)propan-2-yl]-1H-imidazole-4,5-dicarboxamide], for which the IC50 turned out to be 110 nM.

Consider `CC1CCCCN1CCNC(=O)c1[nH]cnc1C(=O)Nc1ccc(NC(=O)c2ccc(F)cc2)cc1` (centres unmarked) [Example 169, N^4-{4-[(4-fluorobenzoyl)amino]phenyl}-N^5-[2-(2-methylpiperidin-1-yl)ethyl]-1H-imidazole-4,5-dicarboxamide], for which the IC50 came to 90 nM.

Turning to `CC1CCCN(CCNC(=O)c2[nH]cnc2C(=O)Nc2ccc(NC(=O)c3ccc(F)cc3Cl)cc2)C1` (centres unmarked) [Example 208, N^4-{4-[(2-chloro-4-fluorobenzoyl)amino]phenyl}-N^5-[2-(3-methylpiperidin-1-yl)ethyl]-1H-imidazole-4,5-dicarboxamide], inhibition was half-maximal at 3 nM (IC50).

`CNC(=O)c1nc[nH]c1C(=O)Nc1ccc(NC(=O)c2cnccc2Cl)cc1` [Example 254, N^5-(4-{[(4-chloropyridin-3-yl)carbonyl]amino}phenyl)-N^4-methyl-1H-imidazole-4,5-dicarboxamide] showed an IC50 of 570 nM. Compared with the last molecule, the IC50 is about 190-fold higher.

In turn, `O=C(Nc1ccc(NC(=O)c2nc[nH]c2C(=O)NC(CO)CO)cc1)c1ccccc1Cl` [Example 157, N^4-{4-[(2-chlorobenzoyl)amino]phenyl}-N^5-(1,3-dihydroxypropan-2-yl)-1H-imidazole-4,5-dicarboxamide] came in with an IC50 of 1200 nM.

In turn, `CC(C)(CN1CCCCC1)NC(=O)c1[nH]cnc1C(=O)Nc1ccc(NC(=O)c2ccccc2Cl)cc1` [Example 171, N^4-{4-[(2-chlorobenzoyl)amino]phenyl}-N^5-[2-methyl-1-(piperidin-1-yl)propan-2-yl]-1H-imidazole-4,5-dicarboxamide] returned an IC50 of 200 nM.

`CNC(=O)c1ncoc1C(=O)Nc1ccc(NC(=O)c2ccc(F)cc2Cl)cc1` [Example 11, N^5-{4-[(2-chloro-4-fluorobenzoyl)amino]phenyl}-N^4-methyl-1,3-oxazole-4,5-dicarboxamide] showed an IC50 of 150 nM.
